One substance from patent publication US20110251158A1, “FULLERENE THERAPIES FOR INFLAMMATION AND INHIBITION OF BUILD-UP OF ARTERIAL PLAQUE” (Luna Innovations Incorporated, priority 2008, published 2011) can be followed below.

The subject of this assay is Mast cells (MC). The experiment in a line: Anti-FcεRI-induced GM-CSF cytokine production in MC. The assay is classed as cell-based, human. The note with it: maximum inhibition set to 100%. On the procedure: MC are a component of the inflammatory response. As such, cultures of human Mast Cells can be used for screening the activity of different fullerene derivatives to evaluate their potential activity in animal models. In this example, human skin tissue was received from the Cooperative Human Tissue Network and MC purified and cultured as described in Kepley, C. L. Int. Arch. Allergy Immunol. 138, 29-39 (2005). The MC were cultured in media containing stem cell factor which is removed from the culture 24 hours prior to experimentation.
For activation, MC were suspended in fresh medium (without cytokines) and incubated for 16 hours with or without fullerene derivatives at 37° C. in a 6% CO2 incubator. […] The next morning, cells were washed and stimulated with anti-FcεRI Abs (3B4; 1 μg/ml) for 30 minutes (β-hexosaminidase) or overnight (GM-CSF) at 37° C. in a 6% CO2 incubator and mediator release measured as described in Zhao, W., Kepley, C. […]
Cells were cultured with fixed concentrations of a fullerene derivative (10 μg/ml; FIGS. 8A and 9A) or different concentrations (FIGS. 8B and 9B) for 16 h, washed and stimulated for 30 min (FIGS. 8A and 8B) or 24 hours (FIGS. 9A and 9B) with optimal concentrations of αanti-FcεRI Abs (3B4; 1 μg/ml). Cells were centrifuged and β-hexosaminidase release and GMCSF levels determined by ELISA.

Turning to C70-tetraglycolic acid [TGA], the “IC50 (GMCSF-cytokine production)” value is listed as 3.3 (±0.6) μg/ml.
